Read-outs that look alike come from different tables or passages of the source.
Columns and labels:
[1] = Metabolic stability in liver microsomal and S9 fractions; assay type: in vitro ADME, rodents, cynomolgus monkey and humans; conditions: CD-1 (mouse), Sprague-Dawley (rat), beagle (dog), cynomolgus monkey, human, liver microsomes and liver S9 fractions, all species
Description: Metabolic stability was evaluated using mixed gender CD-1 mouse or human liver microsomal fractions (XenoTech, Lenexa, KS). Compounds (1 µM) were incubated with microsomes (1.05 mg/mL protein) for 0, 10, 15 and 30 min at 37°C in an oxygen and humidity enriched environment in the presence of an NADPH-regenerating system. Each compound was also incubated, under the same conditions, with CD-1 mouse, Sprague-Dawley rat, beagle dog, cynomolgus monkey, and human liver S9 sub-cellular fractions (2 mg/mL protein)[23] for 0, 15, 30 and 60 min. At the end of each incubation period, the reactions were quenched with 3 volumes of ice-cold methanol. Supernatants from the incubation mixtures were analyzed for parent compound by LC-MS/MS. Metabolic competencies of microsomal and S9 fractions were confirmed using control compounds 7-ethoxycoumarin, propranolol and verapamil. Intrinsic clearance (CLint) and half-life (t½) values were determined for each compound.

CYP3A4 = target: T1, CYP3A4 (Homo sapiens, UniProt P08684); assay: P450-Glo cytochrome P450 inhibition; assay type: biochemical; conditions: human recombinant CYP3A4
T1 construct: purchased Promega Inc., Madison, WI
Description: (§1) The potential for compound to exert drug-drug interactions that are mediated through inhibition of cytochrome P450 activities was assessed using P450-Glo assay kits (Promega Inc., Madison, WI). Assays for human cytochrome P450 isoforms 3A4, 1A2, 2C9, 2C19, and 2D6 were performed in triplicate according to the manufacturer's instructions over the concentration range 1–100 µM (n = 6 levels). Briefly, SCYX-7158 was added to membrane preparations containing human recombinant CYP450 enzymes together with luminogenic substrates specific to each isoform. Specific CYP450 inhibitors were included as positive controls (ketoconazole, CYP3A4; alpha-napthoflavone, 1A2; sulfaphenazole, CYP2C9; troglitazone, 2C19, and quinidine, CYP2D6). Reactions were initiated by addition of NADPH-regenerating solution and were allowed to incubate for an additional 15–30 min (isoform dependent). Luciferin detection reagent, containing the luciferin-labeled probe substrate, was then added. Luminescence was recorded on an EnVision Multilabel Plate Reader. Calculation of IC50 concentrations for each enzyme was determined using GraphPad Prism (V5.01).

CYP2C19 = target: T2, CYP2C19 (Homo sapiens, UniProt P33261); assay: P450-Glo cytochrome P450 inhibition; assay type: biochemical; conditions: human recombinant CYP2C19
T2 construct: purchased Promega Inc., Madison, WI
Description: as §1

CYP2C9 = target: T3, CYP2C9 (Homo sapiens, UniProt P11712); assay: P450-Glo cytochrome P450 inhibition; assay type: biochemical; conditions: human recombinant CYP2C9
T3 construct: purchased Promega Inc., Madison, WI
Description: as §1

CYP2D6 = target: T4, CYP2D6 (Homo sapiens, UniProt P10635); assay: P450-Glo cytochrome P450 inhibition; assay type: biochemical; conditions: human recombinant CYP2D6
T4 construct: purchased Promega Inc., Madison, WI
Description: as §1

CYP1A2 = target: T5, CYP1A2 (Homo sapiens, UniProt P05177); assay: P450-Glo cytochrome P450 inhibition; assay type: biochemical; conditions: human recombinant CYP1A2
T5 construct: purchased Promega Inc., Madison, WI
Description: as §1

[2] = Steady-state pharmacokinetics in T. brucei-infected mice; assay type: in vivo, mouse; conditions: for AUC(0-inf) / Cmax: mouse; for AUC(0-inf): read-out: AUC0-inf in brain tissue
Description: The blood distribution, CNS disposition and pharmacokinetics of SCYX-7158 were evaluated in infected or non-infected rodents following intravenous or oral administration of compounds. Pharmacokinetics and bioavailability of SCYX-7158 were also evaluated in non-infected beagle dogs and cynomolgus monkeys. In-life phases of non-infected rodent studies were performed at Vivisource (Waltham, MA); studies in non-naïve cynomolgus monkeys were performed by SNBL USA (Everett, WA).
Samples of plasma (25 µL) and CSF (10 µL) were treated with 3 volumes of ice-cold methanol (containing 25 ng/mL of 2-chloro-4-fluoro-N-(1-hydroxy-1,3-dihyrobenzo[c][1], [2]oxaborol-6-yl)benzamide or 25 ng/mL d6-SCYX-7158 as an internal standard) to precipitate proteins. Treated samples were gently mixed at room temperature for 10 min, and then centrifuged at approximately 3000×g for 15 min at 15°C. The supernatants were transferred to 96-well plates or HPLC vials for analysis by LC-MS/MS.
Pharmacokinetic parameters were calculated from composite mean plasma or tissue data using non-compartmental (oral and intravenous routes) and bi-exponential (intravenous route) analyses in Microsoft Excel.

T5 sequence (P05177 whole entry): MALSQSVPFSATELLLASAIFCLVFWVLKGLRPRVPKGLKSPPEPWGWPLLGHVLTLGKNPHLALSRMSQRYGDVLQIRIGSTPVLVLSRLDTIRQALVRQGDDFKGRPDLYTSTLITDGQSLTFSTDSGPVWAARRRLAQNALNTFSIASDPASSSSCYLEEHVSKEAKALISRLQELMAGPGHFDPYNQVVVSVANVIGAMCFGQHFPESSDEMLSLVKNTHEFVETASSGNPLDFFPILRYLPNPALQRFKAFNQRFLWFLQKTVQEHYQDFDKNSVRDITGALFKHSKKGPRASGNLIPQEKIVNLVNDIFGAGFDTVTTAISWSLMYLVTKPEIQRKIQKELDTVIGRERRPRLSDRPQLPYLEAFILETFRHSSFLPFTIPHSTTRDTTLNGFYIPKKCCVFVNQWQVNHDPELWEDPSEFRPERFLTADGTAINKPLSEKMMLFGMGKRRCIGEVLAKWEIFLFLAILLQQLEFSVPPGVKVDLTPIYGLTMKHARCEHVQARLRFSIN
T2 sequence (P33261 whole entry): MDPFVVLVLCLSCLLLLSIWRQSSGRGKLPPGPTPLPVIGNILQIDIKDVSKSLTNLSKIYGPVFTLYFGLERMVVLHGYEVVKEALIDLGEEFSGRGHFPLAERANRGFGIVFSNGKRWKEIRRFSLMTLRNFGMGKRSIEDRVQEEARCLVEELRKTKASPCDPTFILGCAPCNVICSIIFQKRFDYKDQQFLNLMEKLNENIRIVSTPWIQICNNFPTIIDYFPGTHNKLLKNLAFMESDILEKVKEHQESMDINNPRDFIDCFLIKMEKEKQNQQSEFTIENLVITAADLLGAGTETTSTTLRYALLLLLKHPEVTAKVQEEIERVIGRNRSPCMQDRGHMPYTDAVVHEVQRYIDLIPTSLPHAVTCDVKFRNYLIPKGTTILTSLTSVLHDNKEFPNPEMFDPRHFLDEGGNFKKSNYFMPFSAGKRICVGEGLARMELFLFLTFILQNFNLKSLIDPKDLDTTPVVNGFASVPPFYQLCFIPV
T3 sequence (P11712 whole entry): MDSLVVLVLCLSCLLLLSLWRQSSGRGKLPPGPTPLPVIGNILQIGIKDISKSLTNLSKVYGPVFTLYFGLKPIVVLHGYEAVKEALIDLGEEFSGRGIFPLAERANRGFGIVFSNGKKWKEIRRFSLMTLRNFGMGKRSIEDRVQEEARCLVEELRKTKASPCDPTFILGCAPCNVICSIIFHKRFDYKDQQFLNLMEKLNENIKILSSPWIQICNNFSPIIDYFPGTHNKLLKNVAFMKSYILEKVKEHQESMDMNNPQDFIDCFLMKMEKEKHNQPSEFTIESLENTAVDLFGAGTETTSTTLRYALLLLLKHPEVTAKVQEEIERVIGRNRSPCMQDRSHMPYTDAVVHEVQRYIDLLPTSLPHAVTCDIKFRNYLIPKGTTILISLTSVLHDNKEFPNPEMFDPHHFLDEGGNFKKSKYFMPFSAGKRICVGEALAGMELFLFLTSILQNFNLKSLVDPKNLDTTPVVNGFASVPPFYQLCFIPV
T4 sequence (P10635 whole entry): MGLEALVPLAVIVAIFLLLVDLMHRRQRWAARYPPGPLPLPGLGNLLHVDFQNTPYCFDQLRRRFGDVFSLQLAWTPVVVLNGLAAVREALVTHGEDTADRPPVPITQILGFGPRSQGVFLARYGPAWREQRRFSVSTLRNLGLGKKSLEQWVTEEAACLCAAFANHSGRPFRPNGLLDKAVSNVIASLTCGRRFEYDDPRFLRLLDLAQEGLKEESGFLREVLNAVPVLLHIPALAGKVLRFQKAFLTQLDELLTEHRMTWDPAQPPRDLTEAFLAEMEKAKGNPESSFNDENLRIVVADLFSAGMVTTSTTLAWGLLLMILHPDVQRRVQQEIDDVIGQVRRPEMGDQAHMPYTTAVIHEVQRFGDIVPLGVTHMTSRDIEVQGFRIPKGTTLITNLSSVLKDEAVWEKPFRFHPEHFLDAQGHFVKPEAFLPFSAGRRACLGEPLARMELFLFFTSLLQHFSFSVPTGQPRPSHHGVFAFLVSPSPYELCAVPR
T1 sequence (P08684 whole entry): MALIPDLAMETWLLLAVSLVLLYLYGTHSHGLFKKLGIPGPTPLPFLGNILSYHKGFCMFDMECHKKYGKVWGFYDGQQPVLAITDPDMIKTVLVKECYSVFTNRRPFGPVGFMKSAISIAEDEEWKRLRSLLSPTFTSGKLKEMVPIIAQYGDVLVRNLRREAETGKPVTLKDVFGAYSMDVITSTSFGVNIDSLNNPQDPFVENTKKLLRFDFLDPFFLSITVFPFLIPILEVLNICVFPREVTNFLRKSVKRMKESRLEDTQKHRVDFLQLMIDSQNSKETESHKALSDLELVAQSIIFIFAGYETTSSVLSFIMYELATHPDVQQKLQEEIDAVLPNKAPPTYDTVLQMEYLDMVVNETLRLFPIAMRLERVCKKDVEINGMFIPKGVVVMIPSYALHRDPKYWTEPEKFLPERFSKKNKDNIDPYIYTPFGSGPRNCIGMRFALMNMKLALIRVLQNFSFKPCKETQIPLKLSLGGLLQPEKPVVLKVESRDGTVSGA

Q: With `CC1(C)OB(O)c2cc(NC(=O)c3ccc(F)cc3C(F)(F)F)ccc21` [SCYX-7158] as the molecule, how does the half-life at 1 µM [1] read?
A: > 5.83 h

Q: And the microsomal CLint at 1 µM ([1]; read-out: intrinsic clearance)?
A: < 5 µL/min/mg

Q: And the IC50 (CYP3A4)?
A: 47.4 µM

Q: And the IC50 (CYP2C19)?
A: 23.1 µM

Q: What about the IC50 (CYP2C9) of the same molecule?
A: 23.5 µM

Q: What about the IC50 (CYP2D6) of the same molecule?
A: 21.1 µM

Q: And the IC50 (CYP1A2)?
A: > 100 µM

Q: And the “time brain concentrations maintained at or above the MIC (0.6 µg/mL)” value ([2]; 25 mg/kg dose)?
A: ~24 h

Q: What about the AUC(0-inf) ([2]; Swiss Webster, brain, 12.5 mg/kg oral, 7 daily doses, infected mice) of the same molecule?
A: 34200 ng·h/mL

Q: And the Cmax ([2]; Swiss Webster, brain, 12.5 mg/kg oral, 7 daily doses, infected mice, read-out: Cmax in brain tissue)?
A: 6540 ng/mL

Q: And the AUC(0-inf) ([2]; Swiss Webster, brain, 25 mg/kg oral, 7 daily doses, infected mice)?
A: 81500 ng·h/mL

Q: What about the Cmax ([2]; Swiss Webster, brain, 25 mg/kg oral, 7 daily doses, infected mice, read-out: Cmax in brain tissue) of the same molecule?
A: 12000 ng/mL

Q: And the Cmax ([2]; plasma, 25 mg/kg doses, read-out: plasma Cmax at steady-state)?
A: ~15000 ng/mL

From PMC3125149, “SCYX-7158, an Orally-Active Benzoxaborole for the Treatment of Stage 2 Human African Trypanosomiasis” (PLoS Neglected Tropical Diseases, 2011)
